US20230391739A1, “ARYL DERIVATIVES FOR TREATING TRPM3 MEDIATED DISORDERS” (Katholieke Universiteit Leuven, priority 2020, published 2023)

Target: T1, mouse TRPM3α2 (mTRPM3) ion channel (Mus musculus, UniProt J9SQF3)
T1 construct: expressed in transfected cells; host or cells: flip-in HEK293
Test: TRPM3 ion channel driven Ca2+ uptake, Fluo-4 AM assay, PS-stimulated (mTRPM3)
Format: cell-based
Conditions: TRPM3 overexpressing flip-in HEK293 cells stimulated with Pregnenolone sulfate (PS) 50 μM, activity ranges A, B, C
How it was run: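 Ca²⁺ influx through mouse TRPM3α2, opened by 50 μM pregnenolone sulfate, was tracked with Fluo-4 AM in stably transfected HEK293 cells read directly after seeding onto pre-dispensed compound.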

T1 sequence (J9SQF3 1-1709 isoform J9SQF3-12): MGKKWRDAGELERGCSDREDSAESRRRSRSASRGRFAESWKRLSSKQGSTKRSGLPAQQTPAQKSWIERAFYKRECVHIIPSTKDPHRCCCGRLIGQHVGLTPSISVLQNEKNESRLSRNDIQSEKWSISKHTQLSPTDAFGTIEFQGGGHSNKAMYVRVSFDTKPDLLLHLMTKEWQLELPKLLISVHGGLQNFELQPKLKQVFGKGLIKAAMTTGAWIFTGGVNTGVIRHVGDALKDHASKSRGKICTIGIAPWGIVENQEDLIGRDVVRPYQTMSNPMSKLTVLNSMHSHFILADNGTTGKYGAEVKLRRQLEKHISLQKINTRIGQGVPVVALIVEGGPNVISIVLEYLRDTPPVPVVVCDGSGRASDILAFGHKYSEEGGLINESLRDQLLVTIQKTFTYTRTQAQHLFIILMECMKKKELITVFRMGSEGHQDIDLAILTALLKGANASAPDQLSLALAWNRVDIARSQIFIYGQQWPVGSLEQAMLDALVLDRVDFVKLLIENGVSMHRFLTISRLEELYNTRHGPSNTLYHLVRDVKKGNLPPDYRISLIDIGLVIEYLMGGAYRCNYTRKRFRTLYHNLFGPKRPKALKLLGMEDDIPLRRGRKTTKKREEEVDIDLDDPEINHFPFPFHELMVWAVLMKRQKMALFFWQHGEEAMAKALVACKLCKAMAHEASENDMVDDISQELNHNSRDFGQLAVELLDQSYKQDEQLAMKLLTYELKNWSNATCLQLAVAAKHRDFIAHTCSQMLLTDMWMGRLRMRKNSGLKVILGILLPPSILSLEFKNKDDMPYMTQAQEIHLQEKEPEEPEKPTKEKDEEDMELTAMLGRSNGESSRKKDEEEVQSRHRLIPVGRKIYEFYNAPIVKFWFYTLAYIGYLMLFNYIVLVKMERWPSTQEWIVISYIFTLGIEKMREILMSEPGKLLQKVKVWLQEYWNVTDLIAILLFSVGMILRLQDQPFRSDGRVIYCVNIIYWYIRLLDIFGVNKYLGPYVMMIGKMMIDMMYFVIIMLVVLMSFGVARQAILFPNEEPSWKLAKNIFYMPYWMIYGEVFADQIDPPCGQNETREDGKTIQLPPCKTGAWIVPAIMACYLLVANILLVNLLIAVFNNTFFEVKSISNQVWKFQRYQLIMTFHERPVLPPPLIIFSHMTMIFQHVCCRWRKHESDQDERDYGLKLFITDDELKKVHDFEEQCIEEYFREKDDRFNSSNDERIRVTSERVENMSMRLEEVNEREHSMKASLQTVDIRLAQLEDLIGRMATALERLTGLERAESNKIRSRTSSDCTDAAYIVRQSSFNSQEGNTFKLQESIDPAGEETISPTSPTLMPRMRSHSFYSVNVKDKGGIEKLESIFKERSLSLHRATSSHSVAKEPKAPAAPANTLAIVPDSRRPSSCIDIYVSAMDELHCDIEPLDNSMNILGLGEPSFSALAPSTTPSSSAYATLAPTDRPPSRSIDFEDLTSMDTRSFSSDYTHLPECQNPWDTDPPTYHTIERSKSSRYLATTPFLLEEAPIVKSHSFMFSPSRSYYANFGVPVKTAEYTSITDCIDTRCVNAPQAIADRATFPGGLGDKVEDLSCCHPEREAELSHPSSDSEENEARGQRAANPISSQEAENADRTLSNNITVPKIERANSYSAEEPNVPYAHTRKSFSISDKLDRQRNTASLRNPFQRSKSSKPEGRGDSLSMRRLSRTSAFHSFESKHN

SMILES	IC50
Cc1oc2ccc(OCc3ccc(C(F)(F)F)cc3)cc2c1C(=O)N[C@H]1CCNC1 [Cpd 202, (S)-2-methyl-N-(pyrrolidin-3-yl)-5-((4-(trifluoromethyl)benzyl)oxy)benzofuran-3-carboxamide]	1000 to 20000 nM
Cc1cccc(COc2ccc3oc(C)c(C(=O)N[C@H]4CCNC4)c3c2)c1 [Cpd 084, (S)-2-methyl-5-((3-methylbenzyl)oxy)-N-(pyrrolidin-3-yl)benzofuran-3-carboxamide]	< 1000 nM
COc1cccc(COc2ccc3oc(C)c(C(=O)N[C@H]4CCNC4)c3c2)c1 [Cpd 127, (S)-5-((3-methoxybenzyl)oxy)-2-methyl-N-(pyrrolidin-3-yl)benzofuran-3-carboxamide]	< 1000 nM
Cc1oc2ccc(OCc3ccccc3)cc2c1C(=O)N(C)C1CCN(C)CC1 [Cpd 156, 5-(benzyloxy)-N,2-dimethyl-N-(1-methylpiperidin-4-yl)benzofuran-3-carboxamide]	1000 to 20000 nM
Cc1ccc(COc2ccc3oc(C)c(C(=O)N[C@@H](CO)C(N)=O)c3c2)c(F)c1 [Cpd 342, (S)—N-(1-amino-3-hydroxy-1-oxopropan-2-yl)-5-((2-fluoro-4-methylbenzyl)oxy)-2-methylbenzofuran-3-carboxamide]	< 1000 nM
Cc1oc2ccc(COc3ccccc3F)cc2c1C(=O)NC(C)C(N)=O (single isomer, unassigned) [Cpd 320-En 2]	< 1000 nM
Cc1oc2ccc(OC(C)c3ccccc3)cc2c1C(=O)NC1(C(N)=O)CCC1 (single isomer, unassigned) [Cpd 343-En 2, N-(1-carbamoylcyclobutyl)-2-methyl-5-(1-phenylethoxy)benzofuran-3-carboxamide]	< 1000 nM
Cc1oc2ccc(OCc3ccccc3F)cc2c1C(=O)NC1(CO)CCOC1 (single isomer, unassigned) [Cpd 327-En 2, 5-((2-fluorobenzyl)oxy)-N-(3-(hydroxymethyl)tetrahydrofuran-3-yl)-2-methylbenzofuran-3-carboxamide]	< 1000 nM
Cc1oc2ccc(OCc3ccccc3)cc2c1C(=O)N1CCC(C(=O)OC(C)(C)C)CC1 [Cpd 237, tert-butyl 1-(5-(benzyloxy)-2-methylbenzofuran-3-carbonyl)piperidine-4-carboxylate]	> 20000 nM
COc1ccccc1COc1ccc2oc(C)c(C(=O)N[C@@H](CO)C(N)=O)c2c1 [Cpd 339, (S)—N-(1-Amino-3-hydroxy-1-oxopropan-2-yl)-5-((2-methoxybenzyl)oxy)-2-methylbenzofuran-3-carboxamide]	< 1000 nM
Cc1oc2ccc(OCc3ccccc3)cc2c1C(=O)NC1CN(C(=O)OC(C)(C)C)CCC1F (single isomer, unassigned) [Cpd 255-Dia 1, tert-butyl 3-(5-(benzyloxy)-2-methylbenzofuran-3-carboxamido)-4-fluoropiperidine-1-carboxylate]	< 1000 nM

Second part, the compound after the results:

IC50	SMILES
1000 to 20000 nM	Cc1oc2ccc(OCc3ccccc3)cc2c1C(=O)NCC1CCOCC1 [Cpd 122, 5-(benzyloxy)-2-methyl-N-((tetrahydro-2H-pyran-4-yl)methyl)benzofuran-3-carboxamide]
1000 to 20000 nM	Cc1oc2ccc(OCc3ccccc3)cc2c1C(=O)NCCN(C)C [Cpd 055, 5-(benzyloxy)-N-(2-(dimethylamino)ethyl)-2-methylbenzofuran-3-carboxamide]
< 1000 nM	Cc1oc2ccc(OCc3ccccc3)cc2c1C(=O)Nc1cnccn1 [Cpd 061, 5-(benzyloxy)-2-methyl-N-(pyrazin-2-yl)benzofuran-3-carboxamide]
1000 to 20000 nM	CNC(=O)[C@@H]1C[C@@H](NC(=O)c2c(C)oc3ccc(OCc4ccccc4)cc23)CN1 [Cpd 188, (2S,4R)-4-(5-(benzyloxy)-2-methylbenzofuran-3-carboxamido)-N-methylpyrrolidine-2-carboxamide]
< 1000 nM	Cc1oc2ccc(OCc3ccccc3)cc2c1C(=O)NC1CCCC1 [Cpd 046, 5-(benzyloxy)-N-cyclopentyl-2-methylbenzofuran-3-carboxamide]
